Earlier results, collected in US6689382B2, “Soft shell gelatin capsules containing non-steroidal anti-inflammatories” (priority 2002, dated 2004).

Columns and labels:
[1] = clinical trials
COX-2 and COX-1 = conditions: for selectivity for COX-1 and COX-2 (in words): conventional 1st generation NSAIDs; for ratio COX-2 IC50 divided by COX-1 IC50: in vitro, the smaller the ratio the more selective for COX-2

SMILES: Cc1ccc(-c2cc(C(F)(F)F)nn2-c2ccc(S(N)(=O)=O)cc2)cc1 [celecoxib, Celecoxib]
- anti-inflammatory activity [1]: effective anti-inflammatory activity
- gastrointestinal adverse effects ([1]; compared to placebo): virtually no gastrointestinal adverse effects

SMILES: CC(C)Cc1ccc(C(C)C(=O)O)cc1 (stereo not shown) [ibuprofen]
- selectivity for COX-1 and COX-2 (in words) (COX-2 and COX-1): essentially non-selective

SMILES: COc1ccc2c(c1)c(CC(=O)O)c(C)n2C(=O)c1ccc(Cl)cc1 [indomethacin]
- ratio COX-2 IC50 divided by COX-1 IC50 (COX-2 and COX-1): about 30

SMILES: CC(C(=O)O)c1cccc(C(=O)c2ccccc2)c1 (stereo not shown) [ketoprofen]
- selectivity for COX-1 and COX-2 (in words) (COX-2 and COX-1): relatively COX-1 selective

SMILES: COc1ccc2cc([C@H](C)C(=O)O)ccc2c1 [naproxen]
- selectivity for COX-1 and COX-2 (in words) (COX-2 and COX-1): essentially non-selective

SMILES: CN1C(C(=O)Nc2ccccn2)=C(O)c2ccccc2S1(=O)=O [piroxicam]
- ratio COX-2 IC50 divided by COX-1 IC50 (COX-2 and COX-1): about 30
